Data reported in patent US8058460B2, “Near infrared fluorophore for the selective labelling of membranes in cells” (Universität Heidelberg, priority 2006, dated 2011).

Assays:
[1] = tested on: membranes of live HeLa cells; test: In vivo labelling of live cells, confocal laser scanning microscopy; type: cell-based; conditions: live HeLa cells after incubation with KAYA1 labelling solution (FIGS. 2a to 2c)
Description: A protocol for the labelling of live cells was optimized for cultured HeLa cells (epithelial, cervical carcinoma), for LnCAP (Prostatacancer, fibroblasts) and VH7 (foreskin fibroblasts) that are adhering to coverslips. Cells are cultured on coverslips in DEMEM (VH7, HeLa) RPMI (LnCAP) with 10% foetal calf serum, 1 mM glutamine and antibiotics and incubated at 37° C. in an atmosphere of 5% CO2. A 5 μM solution of KAYA1 is prepared in a HEPES-Glucose buffer medium containing 115 mM NaCl, 1.2 mM CaCl2, 1.2 mM MgCl2, 1.2 mM K2HPO4, 20 mM HEPES, 10 mM Glucose, pH 7.4. After removing the cell medium the cells are incubated with the labeling solution for 1 minute at 37° C. The labeling solution is removed, the cells washed in 1×PBS and incubated with the cell medium, prior to analysis.
(§1) The System used was a Leica DM IRBE (TSC/SP2) microscope operating with a helium/neon laser. Detection of all probes was visualized with the laser emission line 633 nm, the detection window was realized between 650 nm-800 nm.
CLSM allows the blur from out of focus regions of the fluorescent specimen to be blocked, resulting in crisp, sharp images from well defined planes in the axial direction. Therefore the images presented here show well defined optical sections in z-axis of the microscope.

[2] = tested on: cell membranes of fixed cells; test: In vitro labelling of fixed cells; type: cell-based; conditions: formaldehyde-fixed cells, 5 μM in 1×PBS, 5 minutes at 37° C.
Description: Staining the cell membranes of fixed cells is also compatible with KAYA1. For staining, the cells are cultured at the same conditions as described for in vivo labelling. The cells are fixed with HEPEM buffer containing 3.7% formaldehyde, 65 mM PIPES, 30 mM HEPES, 10 mM EGTA, 2 mM MgCl2, pH 6.9 for 15 min. Then the cells are washed twice with 1×PBS for 7.5 min. Finally the cell membranes are stained with KAYA1 (5 μM in 1×PBS) for 5 minutes at 37° C., washed with 1×PBS and covered with Vectashield.
as §1

HeLa cell = test: Colocalization experiments with wheat-germ agglutinin (WGA); type: cell-based; conditions: in vivo stains with KAYA1 compared with WGA in fixed cells (FIGS. 2a to 2c, 3a to 3c)
Text: Wheat-germ agglutinin (WGA) is a glycoprotein (lectin) that recognizes and binds to specific glycoconjugates such as N-acetylneuraminic acid, N-acetyl glucosamine, membrane glycoprotein, chitin, cartilage, glucosamineglycans, glycolipids, and glycoproteins with sialic acid residues (cf. Monsigny M., Roche A-C., Sene C., raget-Dana R., Delmotte F., Sugar-Lectin Interactions: How does Wheat-germ Agglutinin bind Sialoglycoconjugates?, Eur. J. Biochem., 1980, (104), 147-153; Wright C S., Crystal structure of a wheat germ agglutinin/glycophorin-sialoglycopeptide receptor complex. Structural Basis for cooperative lectin-cell binding, J. Biol. Chem., 1992, 267(20), 14345-52). WGA is commonly used to stain the golgi apparatus, nuclear envelop and plasma membrane of fixed cells.
For the colocalization experiments the cells are stained with KAYA1 at the same conditions as described for in vivo labelling. Then the cells are fixed with HEPEM buffer and the membranes of the cells are permeabilized 30 min at 4° C. with 50 ml 1×PBS containing 50 mg Saponin. After washing the cells with 1×PBS for 5 min at room temperature the cells are incubated 15 min with 50 μg/ml WGA at 37° C. Finally the cells are washed with 1×PBS and covered with Vectashield, prior to analysis.

Solubility of KAYA1 = type: physicochemical
Description: The Boc protecting group of compound A is cleaved with trifluoro acetic acid (6.7 ml, 87 mmol) in methanol (3 ml, 74 mmol) for 18 hours at room temperature. After evaporation and recrystallization in anisole KAYA1 was characterized by electrospray mass spectrometry: (Mfound 389.1245 m/e, 391.1611 m/e, Mcalc 388.12 m/e, 390.12 m/e); 1H NMR spectroscopy (CD3OD): S=1.39 ppm (m, 4H), 1.59 ppm (m, 2H), 1.64 ppm (m, 2H), 2.80 ppm (t, 2H), 3.24 ppm (t, 2H), 7.03 ppm (d, 1H), 7.08 ppm (d, 1H), 7.42 ppm (d, 1H), 7.65 ppm (d, 1H), 7.92 ppm (s, 1H); UV-Vis spectrophotometry (Absmax: 574 nm and 623 nm) and fluorimetry (Emmax: 660 nm).

NCCCCCCNc1ccc(O)c2c1C(=O)c1c(O)ccc(Cl)c1C2=O [KAYA1, 1-(6-amino-hexylamino)-5-chloro-4,8-dihydroxy-anthraquinone]
membrane structures visualized by the dye [1]: visualizes the cytoplasmatic membrane, the nuclear membrane and the membrane of certain organelles such as endoplasmatic reticulum and golgi apparatus
staining of cell membranes of fixed cells [2]: compatible
similarity of stained regions with binding regions of WGA (HeLa cell): high similarity with the specific binding regions of WGA
solubility in methanol (Solubility of KAYA1; methanol): soluble
solubility in water (Solubility of KAYA1; water): moderately soluble
